Results taken from PMC12508063, “Chloroindazole based estrogen receptor β ligands with favorable pharmacokinetics promote functional remyelination and visual recovery” (Scientific Reports, 2025).

How the values were obtained:
[1] = tested on: EAE mice; assay: EAE clinical disease score; assay type: in vivo, C57BL/6J mouse; settings: 5 mg/kg/day SC from peak disease
Method: EAE induction and treatment: EAE was induced in 8–10-week-old wild-type C57BL/6J mice using MOG₃₅-₅₅ peptide[11],[14],[23]–[25]. Mice were scored daily using a standard clinical scale (0–5) and tested for their ability to stay on a rotarod. […] At peak disease (18–22 days post-immunization), animals were grouped into EAE+Vehicle, EAE+K102, and EAE+K110.
Fig. 3 Experimental design for treatment effects in EAE. (A) Experimental plan. […] Following emulsion injection, mice were injected with pertussis (PTX). Mice were scored for their clinical EAE score daily. EAE mice (red) show signs of disease starting at days 8–17. At peak disease between the days […], therapeutic treatment started and continued daily until the end of the experiment (D35-45). […] N = 6–8 mice/group. Two-Way unbalanced ANOVA with Dunnett’s multiple comparisons test was performed. […]
EAE induction and treatment: Eight to ten-week-old wild-type C57BL/6J mice were induced with active EAE using MOG35-55 peptide as previously described (1-5). […] Animals were scored daily for clinical EAE scores as follows: 0, unaffected; 1, complete tail limpness; 2, failure to right upon attempt to roll over; 3, partial hind limb paralysis; 4, complete hind limb paralysis; […]. At peak disease 18-22 dpi, mice were scored and separated into 3 groups: EAE+V, EAE+SHK-K102, and EAE+K110. […]

[2] = tested on: EAE optic nerve gene transcripts; assay: NanoString nCounter Mouse Neuropathology gene expression, optic nerve RNA; assay type: in vivo
Method: RNA Extraction and NanoString nCounter Gene Expression Assay: RNA was isolated from a single optic nerve of normal, EAE+Vehicle, and EAE+K102 mice[28]. The RNA samples were analyzed using the nCounter Mouse Neuropathology panel (NanoString Technologies) (Supplementary Data Set 1). Fold changes were calculated using normalized data for the three groups (Supplementary Data Set 2).
Genes associated with myelination, inflammation, and axon health are altered in EAE optic nerves compared to normal optic nerves. To examine how K102 treatment affects these gene transcripts, RNA from treated optic nerves was analyzed using the NanoString Neuropathology gene expression panel (Fig. 7A, Supplementary Data Set 1). […] Ccr2 is a chemokine receptor involved in recruiting immune cells to sites of inflammation. Cpt1b (carnitine palmitoyltransferase 1B) is an enzyme critical for fatty acid oxidation.
RNA Extraction and NanoString nCounter Gene Expression Assay: RNA was isolated from a single optic nerve as described previously in(9). Optic nerves were isolated from normal, EAE+V, and EAE+K102 mice. RNA isolates were run on the nCounter Mouse Neuropathology panel (NanoString Technologies, Seattle, WA). Normalized data was used to calculate fold change for all three groups.
For nCounter gene expression analysis, normalized counts were used to calculate log2 fold changes. Welch’s t-test (unequal variance t-test) was applied when comparing NM vs. EAE+V and EAE+V vs. EAE+K102, as both sample sizes and variances differed between groups. Significance levels were set as follows: *p < 0.05, **p < 0.01, ***p < 0.001, and ****p < 0.0001. Summary of statistics for Figures is in a table format in the supplementary sections Supplementary TableS7-S12 […]

[3] = biological target: CYP2C9 (Homo sapiens, UniProt P11712); assay: CYP inhibition; settings: test compounds at 10 μM; substrate Diclofenac Sodium
[4] = biological target: CYP2D6 (Homo sapiens, UniProt P10635); assay: CYP inhibition; settings: test compounds at 10 μM; substrate Dextromethorphan
[5] = Liver microsome stability (human)
[6] = tested on: EAE mice retina; assay: Retina IHC in EAE; assay type: in vivo, mouse
Text: Animal Perfusions, tissue preparation, and IHC: Mice were deeply anesthetized and euthanized with isoflurane and intracardially perfused with ice‐cold PBS followed by 10% formalin in PBS (Fisher Scientific, Hampton, NH). Eyes, optic nerves, and brain were collected and processed for IHC as previously described[23],[28]. Antibody details are listed in Supplementary Table S6.
Imaging and Quantification: Retina, optic nerve, and brain sections were imaged using an Olympus BX61 spinning disk confocal microscope with 10× and 40× objectives[23],[28]. Z-stack images were captured and processed using Slidebook 6 and cellSense software. Immunofluorescence intensity and cell counts were quantified using NIH ImageJ, and statistical analysis was performed with GraphPad Prism.
RGC degeneration and pronounced GFAP immunoreactivity is evident in both MS and EAE[23],[28],[35],[36]. To quantify the number of RGCs, neuronal nuclear marker (NeuN) was used. […]
Imaging and Quantification: Retina, optic nerve, and brain sections were imaged using an Olympus BX61 spinning disk confocal microscope equipped with 10x and 40x Super Apochromat objectives (Olympus America Inc., Cypress, CA) connected to a camera (Hamamatsu Orca‐R2). […] Immunofluorescence intensity and cell numbers were assessed with NIH ImageJ software (v1. 50i http://rsb.info.nih.gov/ij/) and quantified. […]

[7] = hepatocytes

Chain of CYP2D6 (P10635 whole entry): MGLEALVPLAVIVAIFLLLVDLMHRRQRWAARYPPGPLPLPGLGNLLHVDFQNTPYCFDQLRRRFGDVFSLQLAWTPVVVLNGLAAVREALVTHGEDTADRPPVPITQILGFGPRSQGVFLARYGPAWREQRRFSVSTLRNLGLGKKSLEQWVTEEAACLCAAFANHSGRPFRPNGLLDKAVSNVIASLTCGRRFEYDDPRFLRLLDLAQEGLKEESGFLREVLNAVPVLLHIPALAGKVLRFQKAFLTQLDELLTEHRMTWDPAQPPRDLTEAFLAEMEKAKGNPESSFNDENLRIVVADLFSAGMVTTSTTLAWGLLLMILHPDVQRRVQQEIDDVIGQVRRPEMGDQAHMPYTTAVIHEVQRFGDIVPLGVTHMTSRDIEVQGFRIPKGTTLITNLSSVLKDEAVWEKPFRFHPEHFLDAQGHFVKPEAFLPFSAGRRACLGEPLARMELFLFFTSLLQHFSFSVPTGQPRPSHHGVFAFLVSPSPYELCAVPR
Chain of CYP2C9 (P11712 whole entry): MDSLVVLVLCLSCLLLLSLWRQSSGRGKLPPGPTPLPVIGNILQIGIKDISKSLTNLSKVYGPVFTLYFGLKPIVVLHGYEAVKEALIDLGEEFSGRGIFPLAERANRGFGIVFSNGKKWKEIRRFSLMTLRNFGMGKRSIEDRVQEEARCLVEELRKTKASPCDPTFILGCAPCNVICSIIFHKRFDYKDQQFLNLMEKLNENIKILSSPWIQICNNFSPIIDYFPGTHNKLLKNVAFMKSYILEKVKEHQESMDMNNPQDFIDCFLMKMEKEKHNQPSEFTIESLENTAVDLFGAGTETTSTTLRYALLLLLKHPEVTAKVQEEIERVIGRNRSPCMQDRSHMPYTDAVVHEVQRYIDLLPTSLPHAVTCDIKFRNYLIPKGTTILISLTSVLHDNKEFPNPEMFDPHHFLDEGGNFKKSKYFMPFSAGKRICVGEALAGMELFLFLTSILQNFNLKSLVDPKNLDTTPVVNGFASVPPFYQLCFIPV

| SMILES | EAE clinical disease [1] | Ccr2 and Cpt1b transcripts vs vehicle-treated optic nerves ([2]; 2 of 770 genes) | Arc and Pvalb transcripts vs vehicle ([2]; optic nerve, EAE) | Sox10 and Olig2 transcripts relative to vehicle ([2]; optic nerve, EAE) | complement system genes C1qa, C1qb, C1qc, and C3 ([2]; optic nerve, EAE) | mitochondrial-related genes Pink1, Tfam, Mfn2, Park7, and Sirt2 ([2]; vs untreated EAE optic nerves) | CYP Inhibition Percentage CYP2C9 [3] [%] | CYP Inhibition Percentage CYP2D6 [4] [%] | Liver Microsome Stability (Human) % Remaining (30 min) ([5]; 30 min) [%] | Liver Microsome Stability (Human) CLint ([5]; human, microsomes) [µL/min/mg protein] | GFAP, mean value [6] | NeuN (RGCs), mean value [6] | Hepatocyte Stability (Mouse) t1/2 [7] [min] | Hepatocyte Stability (Mouse) % Remaining (15 min) ([7]; 0.25 h) [%] |
| --- | --- | --- | --- | --- | --- | --- | --- | --- | --- | --- | --- | --- | --- | --- |
| Cc1cc(O)ccc1-n1nc2ccc(O)cc2c1Cl [Compound K102, IndCl-o-Me] | superior attenuation | significantly altered | increased | increase | did not significantly impact | significant increase | 36.09 | 18.26 | 78.03 | 8.47 |  |  |  |  |
| Oc1ccc(-n2nc3ccc(O)cc3c2Cl)c(O)c1 [Compound K110, IndCl-o-OH] |  |  |  |  |  |  |  |  |  |  | 6.695 | 6.167 | 6.15 | 19.46 |
